Reference: ChEMBL document CHEMBL4177640, “Potential anti-proliferative agents from 1,4-benzoxazinone-quinazolin-4(3H)-one templates” (2017)

How the values were obtained:
Format in all cases: functional
MDA-MB-231 = experiment: Antiproliferative activity against human MDA-MB-231 cells after 48 hrs by SRB cell proliferation assay; settings: MDA-MB-231, 48 h
HeLa = experiment: Antiproliferative activity against human HeLa cells after 48 hrs by SRB cell proliferation assay
A549 = experiment: Antiproliferative activity against human A549 cells after 48 hrs by SRB cell proliferation assay; settings: A549, 48 h

Row | Structure (SMILES) | GI50 (MDA-MB-231) [µM] | GI50 (HeLa) [µM] | GI50 (A549) [µM]
1 | COC(=O)Nc1nc2cc(C(=O)c3cccs3)ccc2[nH]1 [NOCODAZOLE] | < 0.01 | < 0.01 | < 0.01
2 | O=C(CN1C(=O)COc2ccccc21)c1ccc(/C=C/Cn2c(-c3ccc(Cl)cc3Cl)nc3ccccc3c2=O)cc1 | 2.73 | 0.62 | 0.91
3 | O=C(CN1C(=O)COc2ccccc21)c1ccc(/C=C/Cn2c(-c3ccc(Cl)cc3)nc3ccccc3c2=O)cc1 | 2 | 1.1 | 0.76
4 | COc1cccc(-c2nc3ccccc3c(=O)n2C/C=C/c2ccc(C(=O)CN3C(=O)COc4ccccc43)cc2)c1 | 13 | 0.55 | 0.61
5 | CCOc1ccc(-c2nc3ccccc3c(=O)n2C/C=C/c2ccc(C(=O)CN3C(=O)COc4ccccc43)cc2)cc1 | 1.13 | 1.05 | 1
6 | Cc1nc2ccccc2c(=O)n1C/C=C/c1ccc(C(=O)CN2C(=O)COc3ccccc32)cc1 | 6.14 | 0.88 | 0.91
7 | O=C(CN1C(=O)COc2ccccc21)c1ccc(/C=C/Cn2c(-c3ccc(C(F)(F)F)cc3)nc3ccccc3c2=O)cc1 | 0.58 | 1.32 | 0.93
8 | O=C(CN1C(=O)COc2ccccc21)c1ccc(/C=C/Cn2c(-c3ccc(F)cc3)nc3ccccc3c2=O)cc1 | 1.52 | 1.02 | 0.81
9 | COc1ccc(-c2nc3ccccc3c(=O)n2C/C=C/c2ccc(C(=O)CN3C(=O)COc4ccccc43)cc2)c(F)c1 | 2.4 | 0.37 | 0.67
10 | COc1ccc(-c2nc3ccccc3c(=O)n2C/C=C/c2ccc(C(=O)CN3C(=O)COc4ccccc43)cc2)c(OC)c1OC | 6.76 | 1.51 | 0.32
11 | COc1ccc(-c2nc3ccccc3c(=O)n2C/C=C/c2ccc(C(=O)CN3C(=O)COc4ccccc43)cc2)c(OC)c1 | 6.03 | 0.59 | 1.36
12 | O=C(CN1C(=O)COc2ccccc21)c1ccc(/C=C/Cn2c(-c3ccc([N+](=O)[O-])cc3)nc3ccccc3c2=O)cc1 | 8.8 | 0.66 | 1
13 | O=C(CN1C(=O)COc2ccccc21)c1ccc(/C=C/Cn2c(-c3ccccc3)nc3ccccc3c2=O)cc1 | 13.4 | 1.37 | 1
14 | Cc1ccc(-c2nc3ccccc3c(=O)n2C/C=C/c2ccc(C(=O)CN3C(=O)COc4ccccc43)cc2)cc1 | 3.4 | 1.4 | 0.9
15 | COc1ccc(-c2nc3ccccc3c(=O)n2C/C=C/c2ccc(C(=O)CN3C(=O)COc4ccccc43)cc2)cc1 | 3.6 | 1.03 | 1.5
16 | COc1ccc(/C=C\c2cc(OC)c(OC)c(OC)c2)cc1O [COMBRETASTATIN A4] | 0.046 | 0.084 | 0.056
